In patent US10035791B2, “Bicyclic compound and pharmaceutical composition thereof for treating stroke and use thereof” (China Medical University, priority 2016, dated 2018):

What was measured:
[1] = test system: ischemic rats; test: Volume of the infarction after cerebral ischemia, magnetic resonance imaging (MRI); format: in vivo, Sprague-Dawley (SD) rats; details: 30 mg/kg, 7 days after the injection, FIGS. 18A, 18B
Text: The ischemic rats are induced by an ischemia-reperfusion model to simulate transient focal cerebral ischemia in rats. Test animals are male Sprague-Dawley (SD) rats weighing 250-300 g. The rats are anesthetized with chloral hydrate (0.4 g/kg IP) and subjected to cerebral ischemia. The ischemia-reperfusion model is induced by ligations of bilateral common carotid arteries (CCAs) and a right middle cerebral artery (MCA). The bilateral CCAs are clamped with non-traumatic arterial clips, and the right MCA is ligated with an 10-0 nylon suture. After 90 minutes ischemia, the suture on the MCA and the arterial clips on CCAs are removed to allow reperfusion. Core body temperature is monitored with a thermistor probe (Hewlett-Packard Model 21090A probe, Hewlett-Packard Company, Andover, Mass.), and maintained at 37° C. with a heating pad during anesthesia. After recovery from anesthesia, rat body temperature is maintained at 37° C. with a heat lamp.
Further, the ischemic rats are assigned into 5 groups, 4 test groups and 1 control group. The ischemic rats of the test groups are injected with 1 mg/kg of the Compound 1, 30 mg/kg of the genipin, 1 mg/kg of the Compound 1 and 100 mg/kg of 2-ME2, and 1 mg/kg of the Compound 1 and the LV-Bmi-1-sh, respectively. The ischemic rats of the control group are injected with the vehicle. At 7 days after the injection, the ischemic rats of the different groups are anesthetized, and the volume of the infarction thereof is assessed by a magnetic resonance imaging (MRI).

[2] = test system: primary cortical cultures (PCCs); test: Lactate dehydrogenase (LDH) release rate analysis, H2O2-treated PCCs; format: cell-based, C57BL/6 mice; details: for concentration at which the LDH release rate of the PCCs is reduced most: tested 0.1, 1, 10 and 100 μM, FIG. 1G; for LDH release rate of the PCCs treated with H2O2: compound 100 μM, 10^-4 mol/L H2O2, 24 hours, FIG. 1F
Description: H2O2 can cause an oxidative damage to cells and a destruction of the cell membrane, and consequently the LDH is released into medium. For that reason, the lower rate of the LDH released into the culture medium is represented the fewer damaged cells and better cell protection effect of sample.
Test cells are primary cortical cultures (PCCs) in this example. The PCCs are prepared from cerebral cortexes of gestation day 17 embryos from C57BL/6 mice as described previously (Cell Death Differ 2008; 15: 143-151). The PCCs are maintained under serum-free conditions in neurobasal medium (Invitrogen), supplemented with B-27 supplement (2%; invitrogen), glutamine (0.5 mM; Sigma Aldrich), glutamate ([…]; Sigma Aldrich), penicillin (100 U/ml) and streptomycin ([…]; Invitrogen). At 4 days in vitro, half of the medium is removed and replaced with fresh medium without glutamate. The cultures are maintained in a humidified incubator at 37° C. with 5% CO2. At 7 days in vitro, the PCCs are used for experimentation.
The PCCs are seeded in a 24-well plate and are allowed to stand for 20 minutes. […] The PCCs are maintained at 37° C. in a humidified atmosphere of 5% CO2 for 24 hours. After incubation, the culture medium is collected and washed twice with phosphate buffered saline (PBS), and then are analyzed the LDH activity in the culture medium by using LDH Cytotoxicity Detection Kit (TaKaRa Bio Laboratories, Japan) to calculate the percentage cytotoxicity, which is represented the situation of cells damage, of the PCCs. The lower percentage cytotoxicity presents the lower LDH activity detected and less severe of cells damages, which indicates the better cell protection effect of the sample. The LDH activity is measured by a colorimetry. After a reaction between enzyme and particular substrate, an absorbance of the reaction solution and the LDH activity is linearly correlated. The LDH activity (U/10^−3 L) is calculated by a reduced optical density slope at a wavelength of 340 nm within three minutes. A lactate dehydrogenase activity unit is defined as a catalytic consumption of […] NADH per minute.

LDH release rate of the PCCs treated with H2O2 [2]	Compound	area of the largest infarction (MRI) [1]	volume of the infarction (MRI) [1]	concentration at which the LDH release rate of the PCCs is reduced most [2]
	COC(=O)C1=CO[C@@H](O)[C@@H]2C(CO)=CC[C@H]12 [genipin, reference compound]	reduced	reduced	
	COC(=O)C1=CO[C@@H](OC(=O)[C@@H](N)Cc2ccccc2)[C@@H]2C(CO)=CC[C@H]12 [Compound 16]			100 µM
lower LDH release rate	COC(=O)C1=CO[C@@H](O)[C@@H]2C(COC(=O)[C@H](Cc3ccccc3)NC(=O)OC(C)(C)C)=CC[C@H]12 [Compound 3]			100 µM
lower LDH release rate	COC(=O)C1=CO[C@@H](OC(=O)[C@@H](N)Cc2ccccc2)[C@@H]2C(COC(=O)[C@@H](N)Cc3ccccc3)=CC[C@H]12 [Compound 15]			100 µM
